Columns and labels:
[1] = biological target: T1, CaSR de rat (Rattus norvegicus, UniProt P48442); assay: Accumulation of tritiated inositol phosphates ([3H]IP) in transfected CHO(CaSR) cells; assay type: cell-based; conditions: compound 10 µM
T1 construct: expressed in transfected cells; host or cells: CHO (Chinese hamster ovary) cells, line CHO(CaSR)
T1 sequence (P48442 20-1079): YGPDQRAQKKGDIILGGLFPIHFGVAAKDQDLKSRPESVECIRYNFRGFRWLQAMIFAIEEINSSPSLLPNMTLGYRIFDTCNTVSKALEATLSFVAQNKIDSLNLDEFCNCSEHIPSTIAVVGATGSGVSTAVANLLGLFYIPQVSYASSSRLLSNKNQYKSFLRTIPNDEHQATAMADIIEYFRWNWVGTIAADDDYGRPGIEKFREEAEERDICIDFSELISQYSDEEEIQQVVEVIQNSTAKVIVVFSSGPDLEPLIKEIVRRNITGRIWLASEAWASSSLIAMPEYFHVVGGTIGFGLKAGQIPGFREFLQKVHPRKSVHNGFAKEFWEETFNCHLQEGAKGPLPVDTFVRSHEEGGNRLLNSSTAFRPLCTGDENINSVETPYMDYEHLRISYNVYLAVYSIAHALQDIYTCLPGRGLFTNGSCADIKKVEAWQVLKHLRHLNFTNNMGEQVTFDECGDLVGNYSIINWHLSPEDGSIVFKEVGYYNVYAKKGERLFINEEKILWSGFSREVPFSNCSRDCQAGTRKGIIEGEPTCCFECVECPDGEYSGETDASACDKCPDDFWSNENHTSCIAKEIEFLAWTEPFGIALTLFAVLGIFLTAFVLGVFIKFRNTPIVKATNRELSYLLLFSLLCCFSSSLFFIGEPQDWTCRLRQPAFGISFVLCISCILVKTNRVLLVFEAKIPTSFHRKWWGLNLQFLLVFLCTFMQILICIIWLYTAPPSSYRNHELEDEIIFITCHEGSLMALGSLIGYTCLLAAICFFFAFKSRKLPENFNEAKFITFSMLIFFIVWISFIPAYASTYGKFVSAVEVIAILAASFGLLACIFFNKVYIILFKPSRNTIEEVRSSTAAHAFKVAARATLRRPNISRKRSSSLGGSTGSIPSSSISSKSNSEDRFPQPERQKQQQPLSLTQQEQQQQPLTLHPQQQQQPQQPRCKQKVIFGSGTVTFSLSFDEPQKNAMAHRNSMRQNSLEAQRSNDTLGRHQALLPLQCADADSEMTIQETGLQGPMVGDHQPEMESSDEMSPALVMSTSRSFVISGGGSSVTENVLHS
Text: L'ADN complémentaire codant pour le CaSR de rat a été isolé à partir d'une banque ADNc de striatum de rat (Ruat et al, Proc. Natl. Acad. Sci., 1995). Ce récepteur est identique au niveau de sa séquence en acides aminés à celui exprimé dans les autres tissus. Des cellules ovariennes de hamster chinois (CHO) transfectées exprimant le CaSR de rat (CHO(CaSR)) ont été caractérisées et les signaux chimiques (seconds messagers) induits par l'activation de ce récepteur ont été analysés. Ainsi, un test biochimique permettant de mesurer l'accumulation d'inositols phosphates tritiés [^3H]IP en réponse à l'activation du récepteur a été mis au point (Ruat et al, J. Biol. Chem., 1996; Ferry et al, Biochem. Biophys. Res. Commun., 1997).
L'activité calcimimétique des composés a été estimée en mesurant l'accumulation d'inositols phosphates tritiés induite par 10 µM de chacun des composés en présence de 2 mM de Ca^2+ dans les cellules CHO(CaSR) (Ferry et al, Biochem Biophys Res Commun, 1997).
Cette activation a été comparée à celle induite par le composé NPS-R- 568, un calcimimétique de référence et utilisé à une concentration de 10 µM (Tableau 1) (Ferry et al, Biochem Biophys Res Commun, 1997; Nemeth et al, Proc Natl Acad Sci USA, 1997).
Dans le tableau 1, l'activité calcimimétique des composés PHD est comparée à celle d'un composé de référence, le NPS-R-568 utilisé à la même concentration et dans les mêmes conditions expérimentales. Cette activité est exprimée en pourcentage de l'activité de 10 mM de Ca^2+. Les moyennes ± erreurs standards de 2 à 5 manipulations indépendantes sont indiquées. Les expériences ont été réalisées en présence de 2 mM de Ca^2+.
(§1) L'accumulation d'inositols phosphates tritiés est exprimée en pourcentage du taux de base observé en présence de 2 mM Ca^2+ (100 %) dans les cellules CHO(WT*) ou CHO(CaSR).

[2] = test system: cellules CHO(WT*); assay: Specificity control: [3H]IP accumulation in CHO(WT*) control cells transfected with the plasmid alone, not expressing CaSR; assay type: cell-based, hamster chinois; conditions: compound 10 µM, basal level in presence of 2 mM Ca^2+ = 100 %
Experimental: Les molécules PHD, utilisées à une concentration de 10 µM ne conduisent pas ou peu à l'accumulation d'[^3H]IP dans des cellules CHO(WT*) témoins ce qui suggère leur spécificité d'action vis-à-vis du CaSR (Tableau 2). Les cellules CHO(WT*) ont été tranfectées avec le plasmide seul et n'expriment pas le CaSR.
as §1

[3] = test system: glande parathyroïdienne; conditions: rat model of chronic renal failure (Wada et al, J. Clin. Invest., 1997); cited from earlier work
[4] = clinical trials Phase I - II, NPS Pharmaceutical (Nemeth et al, 1999); cited from earlier work
[5] = test system: ostéitis fibrosa; conditions: rat (Wada et al, Kidney International, 1998); cited from earlier work
[6] = test system: PTH; conditions: male patients with chronic renal failure (Antansen et al, Kidney International, 1998); cited from earlier work
[7] = test system: PTH; conditions: oral route, postmenopausal women with primary hyperparathyroidism (Silverberg et al, 1997); cited from earlier work
[8] = biological target: T2, récepteurs de la parathyroïde (Rattus norvegicus, UniProt P48442); conditions: experimental trials in the rat; cited from earlier work
T2 construct: from tissue; host or cells: rat parathyroid gland (in vivo)
T2 sequence (P48442 20-1079): T1 sequence (P48442 20-1079)

| Accumulation d'(^3H)-IP % du taux basal. CHO (CaSR) ([1]; basal level in presence of 2 mM Ca^2+ = 100 %) | activity at 10 µM ([1]; basal level in presence of 2 mM Ca^2+ = 100 %, read-out: Accumulation d'(^3H)-IP % du taux basal. CHO (CaSR)) | Accumulation d'(^3H)-IP % de la réponse 10mM Ca^2+ ± E.S. ([1]; in presence of 2 mM Ca^2+, mean ± standard error of 2 to 5 independent experiments) | activation at 10 µM ([1]; in presence of 2 mM Ca^2+, mean ± standard error of 2 to 5 independent experiments, read-out: Accumulation d'(^3H)-IP % de la réponse 10mM Ca^2+ ± E.S.) | SMILES | Accumulation d'(^3H)-IP % du taux basal. CHO (WT*) [2] | activity at 10 µM ([2]; read-out: Accumulation d'(^3H)-IP % du taux basal. CHO (WT*)) | réduire la prolifération cellulaire observée dans la glande parathyroïdienne [3] | bio-disponibilité [4] | ostéitis fibrosa [5] | concentrations de PTH [6] | concentrations de PTH et des ions Ca^2+ libres sériques [7] | sélectivité vis à vis des récepteurs de la parathyroïde comparativement à ceux de la glande thyroïde [8] |
| --- | --- | --- | --- | --- | --- | --- | --- | --- | --- | --- | --- | --- |
| une forte accumulation | 454 ± 33% | 106 ± 15% | 100% | COc1cccc([C@@H](C)NCCCc2ccccc2Cl)c1 [NPS R-568, reference compound] | peu ou pas d'accumulation | 119 ± 9% | 20-50% | faible | réduit ou élimine | réduit | abaisser |  |
|  |  |  |  | COc1cccc([C@@H](C)NCCCc2ccccc2)c1 [NPS R-467] |  |  |  |  |  |  |  | plus sélectif |

— patent EP1235797B1, “ARALKYL-1,2-DIAMINES HAVING CALCIMIMETIC ACTIVITY AND PREPARATION MODE” (CENTRE NATIONAL DE LA RECHERCHE SCIENTIFIQUE (CNRS), priority 1999, dated 2001)
